Measurements reported in PMC7751175, “Lateral Gene Transfer Acts As an Evolutionary Shortcut to Efficient C4 Biochemistry” (Molecular Biology and Evolution, 2020).

Columns and labels:
Test in all cases: malate dehydrogenase-coupled NADH oxidation at […] nm; nonlinear regression
Settings in all cases: co-substrate bicarbonate, 5 mM MgCl2, 50 mM Tris-HCl pH 7.4, 25 °C; read-out: KM(PEP)
[1] = system: isoform 2, native co-opted ppc-1P6 PEPC (TPE1-10); format: biochemical, Alloteropsis semialata
[2] = system: isoform 11, ppc-1P3_LGT:A PEPC (AUS1-01); format: biochemical, Alloteropsis semialata
[3] = system: isoform 6, native co-opted ppc-1P3 PEPC (AANG4-8); format: biochemical, Alloteropsis angusta
[4] = system: isoform 5, native co-opted ppc-1P3 PEPC (MAD1-03); format: biochemical, Alloteropsis semialata
[5] = system: isoform 1, non-C4 ppc-1P6 PEPC (RSA5-03); format: biochemical, Alloteropsis semialata
[6] = system: isoform 12, Donor_C ppc-1P3_C PEPC; format: biochemical, Setaria barbata
[7] = system: isoform 8, ppc-1P3_LGT:M PEPC (A. cimicina); format: biochemical, Alloteropsis cimicina
[8] = system: isoform 10, Donor_A ppc-1P3_A PEPC; format: biochemical, Themeda triandra
[9] = system: isoform 7, Donor_M ppc-1P3_M PEPC; format: biochemical, Megathyrsus maximus

Km [1]: 196 ± 12.9 µM | Km [2]: 699 ± 50.4 µM | Km [3]: 324 ± 23.3 µM | Km [4]: 188 ± 12.5 µM | Km [5]: 319 ± 33.5 µM | Km [6]: 612 ± 55.9 µM | Km [7]: 710 ± 47.2 µM | Km [8]: 687 ± 72.8 µM | Km [9]: 921 ± 99.1 µM
SMILES: C=C(OP(=O)(O)O)C(=O)O [PEP]
